Assay results published in US8952024B2, “Herbicidal pyrimidone derivatives” (E I du Pont de Nemours and Company, priority 2009, dated 2015).
Where two headings read alike, the source gives them in different places.

What was measured:
Test in all cases: Test B pre-/postemergence plant response
Format in all cases: in vivo
[1] = system: pigweed (Amaranthus retroflexus); conditions: Preemergence
Procedure, shortened: (§1)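 Plants treated either at seeding (loam/sand soil) or postemergence at 2 to 18 cm height, using a surfactant-containing non-phytotoxic solvent formulation. Evaluation was visual after 13 to 15 days, 0 to 100 scale relative to controls.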

[2] = system: Italian ryegrass (Lolium multiflorum)
Procedure, shortened: as §1

[3] = system: johnsongrass (Sorghum halepense)
Procedure, shortened: as §1

[4] = system: morningglory (Ipomoea coccinea)
Procedure, shortened: as §1

[5] = system: green foxtail (Setaria viridis); conditions: for pest or weed control at 31 g/ha: 31 g ai/ha, scale 0 to 100 (0 no effect, 100 complete control); for pest or weed control at 62 g/ha: 62 g ai/ha
Procedure, shortened: as §1

[6] = system: ragweed (common ragweed, Ambrosia elatior)
Procedure, shortened: as §1

[7] = system: blackgrass (Alopecurus myosuroides); conditions: for pest or weed control at 31 g/ha: 31 g ai/ha, scale 0 to 100 (0 no effect, 100 complete control); for pest or weed control at 62 g/ha: 62 g ai/ha
Procedure, shortened: as §1

[8] = system: soybean (Glycine max)
Procedure, shortened: as §1

[9] = system: giant foxtail (Setaria faberii); conditions: for pest or weed control at 31 g/ha: 31 g ai/ha, scale 0 to 100 (0 no effect, 100 complete control); for pest or weed control at 62 g/ha: 62 g ai/ha
Procedure, shortened: as §1

[10] = Preemergence, 125 g ai/ha, 0 to 100 scale
[11] = Postemergence, 250 g ai/ha, scale 0 to 100

SMILES: Cc1c(F)cccc1-n1c(-c2ccccc2)ncc(C(=O)C2=C(O)CCCC2=O)c1=O [Compound 47, 3-(3-fluoro-2-methylphenyl)-5-[(2-hydroxy-6-oxo-1-cyclohexen-1-yl)carbonyl]-2-phenyl-4(3H)-pyrimidinone]
- pest or weed control at 250 g/ha ([1]; Amaranthus retroflexus, pre-emergence, 250 g ai/ha, 0 to 100 scale, read-out: Plant response rating, Pigweed): 100%
- pest or weed control at 31 g/ha ([1]; Amaranthus retroflexus, pre-emergence, 31 g ai/ha, scale 0 to 100 (0 no effect, 100 complete control), read-out: Plant response rating, Pigweed): 98%
- Pigweed plant response rating ([1]; 125 g ai/ha, 0 to 100 scale): 100
- pest or weed control at 62 g/ha ([2]; Lolium multiflorum, post-emergence, Postemergence, 62 g ai/ha, scale 0 (no effect) to 100 (complete control), 13 to 15 days, read-out: Plant response rating, Ryegrass, Italian): 30%
- pest or weed control at 125 g/ha ([2]; Lolium multiflorum, post-emergence, Postemergence, 125 g ai/ha, visual rating after 13 to 15 days, scale 0 (no effect) to 100 (complete control)): 30%
- pest or weed control at 250 g/ha ([2]; Lolium multiflorum, pre-emergence, 250 g ai/ha, Preemergence, 0 to 100 scale, read-out: Plant response rating, Ryegrass, Italian): 0%
- pest or weed control at 31 g/ha ([2]; Lolium multiflorum, pre-emergence, Preemergence, 31 g ai/ha, scale 0 to 100 (0 no effect, 100 complete control), read-out: Plant response rating, Ryegrass, Italian): 0%
- Ryegrass, Italian plant response rating [2, 10]: 0
- Johnsongrass plant response rating [3, 10]: 80
- pest or weed control at 125 g/ha ([3]; Sorghum halepense, post-emergence, Postemergence, 125 g ai/ha, visual rating after 13 to 15 days, scale 0 (no effect) to 100 (complete control)): 98%
- pest or weed control at 250 g/ha ([3]; Sorghum halepense, pre-emergence, 250 g ai/ha, Preemergence, 0 to 100 scale, read-out: Plant response rating, Johnsongrass): 100%
- pest or weed control at 31 g/ha ([3]; Sorghum halepense, pre-emergence, Preemergence, 31 g ai/ha, scale 0 to 100 (0 no effect, 100 complete control), read-out: Plant response rating, Johnsongrass): 65%
- pest or weed control at 62 g/ha ([3]; Sorghum halepense, pre-emergence, Preemergence, 62 g ai/ha, scale 0 to 100, 0 no effect, 100 complete control, read-out: Plant response rating, Johnsongrass): 75%
- pest or weed control at 62 g/ha ([4]; Ipomoea, post-emergence, Postemergence, 62 g ai/ha, scale 0 (no effect) to 100 (complete control), 13 to 15 days, read-out: Plant response rating, Morningglory): 80%
- pest or weed control at 125 g/ha ([4]; Ipomoea, post-emergence, Postemergence, 125 g ai/ha, visual rating after 13 to 15 days, scale 0 (no effect) to 100 (complete control)): 90%
- pest or weed control at 250 g/ha ([4]; Ipomoea, pre-emergence, 250 g ai/ha, Preemergence, 0 to 100 scale, read-out: Plant response rating, Morningglory): 55%
- pest or weed control at 31 g/ha ([4]; Ipomoea, pre-emergence, Preemergence, 31 g ai/ha, scale 0 to 100 (0 no effect, 100 complete control), read-out: Plant response rating, Morningglory): 0%
- Morningglory plant response rating [4, 10]: 0
- Foxtail, Green plant response rating [5, 11]: 95
- Foxtail, Green plant response rating [5, 10]: 98
- pest or weed control at 31 g/ha ([5]; Setaria viridis, post-emergence, Postemergence, read-out: Plant response rating, Foxtail, Green): 80%
- pest or weed control at 62 g/ha ([5]; Setaria viridis, post-emergence, Postemergence, scale 0 (no effect) to 100 (complete control), 13 to 15 days, read-out: Plant response rating, Foxtail, Green): 90%
- pest or weed control at 125 g/ha ([5]; Setaria viridis, post-emergence, Postemergence, 125 g ai/ha, visual rating after 13 to 15 days, scale 0 (no effect) to 100 (complete control)): 95%
- pest or weed control at 250 g/ha ([5]; Setaria viridis, pre-emergence, 250 g ai/ha, Preemergence, 0 to 100 scale, read-out: Plant response rating, Foxtail, Green): 98%
- pest or weed control at 31 g/ha ([5]; Setaria viridis, pre-emergence, Preemergence, read-out: Plant response rating, Foxtail, Green): 65%
- pest or weed control at 62 g/ha ([5]; Setaria viridis, pre-emergence, Preemergence, scale 0 to 100, 0 no effect, 100 complete control, read-out: Plant response rating, Foxtail, Green): 80%
- pest or weed control at 62 g/ha ([6]; Ambrosia artemisiifolia, post-emergence, 360 h, Postemergence, 62 g ai/ha, scale 0 (no effect) to 100 (complete control), 13 to 15 days, read-out: Plant response rating, Ragweed): 90%
- pest or weed control at 125 g/ha ([6]; Ambrosia artemisiifolia, post-emergence, 360 h, Postemergence, 125 g ai/ha, visual rating after 13 to 15 days, scale 0 (no effect) to 100 (complete control)): 95%
- pest or weed control at 250 g/ha ([6]; Ambrosia artemisiifolia, pre-emergence, 360 h, 250 g ai/ha, Preemergence, 0 to 100 scale, read-out: Plant response rating, Ragweed): 95%
- pest or weed control at 31 g/ha ([6]; Ambrosia artemisiifolia, pre-emergence, 360 h, Preemergence, 31 g ai/ha, scale 0 to 100 (0 no effect, 100 complete control), read-out: Plant response rating, Ragweed): 45%
- Ragweed plant response rating [6, 10]: 90
- pest or weed control at 31 g/ha ([7]; Alopecurus myosuroides, post-emergence, 360 h, Postemergence, read-out: Plant response rating, Blackgrass): 5%
- pest or weed control at 62 g/ha ([7]; Alopecurus myosuroides, post-emergence, 360 h, Postemergence, scale 0 (no effect) to 100 (complete control), 13 to 15 days, read-out: Plant response rating, Blackgrass): 20%
- pest or weed control at 125 g/ha ([7]; Alopecurus myosuroides, post-emergence, 360 h, Postemergence, 125 g ai/ha, visual rating after 13 to 15 days, scale 0 (no effect) to 100 (complete control)): 25%
- pest or weed control at 250 g/ha ([7]; Alopecurus myosuroides, pre-emergence, 360 h, 250 g ai/ha, Preemergence, 0 to 100 scale, read-out: Plant response rating, Blackgrass): 5%
- pest or weed control at 31 g/ha ([7]; Alopecurus myosuroides, pre-emergence, 360 h, Preemergence, read-out: Plant response rating, Blackgrass): 0%
- pest or weed control at 62 g/ha ([7]; Alopecurus myosuroides, pre-emergence, 360 h, Preemergence, scale 0 to 100, 0 no effect, 100 complete control, read-out: Plant response rating, Blackgrass): 5%
- Blackgrass plant response rating [7, 11]: 30
- Blackgrass plant response rating [7, 10]: 5
- plant injury at 62 g/ha ([8]; Glycine max, post-emergence, Postemergence, 62 g ai/ha, scale 0 (no effect) to 100 (complete control), 13 to 15 days, read-out: Plant response rating, Soybean): 95%
- plant injury at 125 g/ha ([8]; Glycine max, post-emergence, Postemergence, 125 g ai/ha, visual rating after 13 to 15 days, scale 0 (no effect) to 100 (complete control)): 98%
- plant injury at 250 g/ha ([8]; Glycine max, pre-emergence, 250 g ai/ha, Preemergence, 0 to 100 scale, read-out: Plant response rating, Soybean): 0%
- plant injury at 31 g/ha ([8]; Glycine max, pre-emergence, Preemergence, 31 g ai/ha, scale 0 to 100 (0 no effect, 100 complete control), read-out: Plant response rating, Soybean): 0%
- Soybean plant response rating [8, 10]: 0
- Foxtail, Giant plant response rating [9, 11]: 98
- Foxtail, Giant plant response rating [9, 10]: 85
- pest or weed control at 31 g/ha ([9]; Setaria faberi, post-emergence, Postemergence, read-out: Plant response rating, Foxtail, Giant): 90%
- pest or weed control at 62 g/ha ([9]; Setaria faberi, post-emergence, Postemergence, scale 0 (no effect) to 100 (complete control), 13 to 15 days, read-out: Plant response rating, Foxtail, Giant): 98%
- pest or weed control at 125 g/ha ([9]; Setaria faberi, post-emergence, Postemergence, 125 g ai/ha, visual rating after 13 to 15 days, scale 0 (no effect) to 100 (complete control)): 98%
- pest or weed control at 250 g/ha ([9]; Setaria faberi, pre-emergence, 250 g ai/ha, Preemergence, 0 to 100 scale, read-out: Plant response rating, Foxtail, Giant): 100%
- pest or weed control at 31 g/ha ([9]; Setaria faberi, pre-emergence, Preemergence, read-out: Plant response rating, Foxtail, Giant): 45%
- pest or weed control at 62 g/ha ([9]; Setaria faberi, pre-emergence, Preemergence, scale 0 to 100, 0 no effect, 100 complete control, read-out: Plant response rating, Foxtail, Giant): 70%
